≈ marks a conversion by molar mass, not a printed value. Like-named read-outs stand apart in the source and are kept apart here.
What was measured:
[1] = biological target: T1, E. coli DnaE (DNA polymerase III α-subunit from Escherichia coli) (Escherichia coli, UniProt P10443); test: In vitro DnaE single enzyme assay (E. coli); assay type: biochemical
T1 construct: EcDnaE (E. coli DnaE residues 1-1160); 6xHis (N); made in house; host or cells: E. coli BL21(DE3)
In short: (§1)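 3H-dTTP (0.011 mM) incorporation into DNase I-activated calf thymus DNA, alongside the other three dNTPs at 0.025 mM, measured by filter counting after TCA precipitation. Reactions ran 30 min at 30° C., started with purified N-His DnaE: 0.8 μg/ml for E. coli, 0.05 μg/ml for S. aureus.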

[2] = biological target: T2, S. aureus DnaE (DNA polymerase III α-subunit homolog from Staphylococcus aureus) (Staphylococcus aureus, UniProt Q5HF71); test: biochemical; assay type: biochemical
T2 construct: SaDnaE (S. aureus DnaE residues 1-1065); 6xHis (N); made in house; host or cells: E. coli BL21-AI
T2 sequence (Q5HF71 1-1065): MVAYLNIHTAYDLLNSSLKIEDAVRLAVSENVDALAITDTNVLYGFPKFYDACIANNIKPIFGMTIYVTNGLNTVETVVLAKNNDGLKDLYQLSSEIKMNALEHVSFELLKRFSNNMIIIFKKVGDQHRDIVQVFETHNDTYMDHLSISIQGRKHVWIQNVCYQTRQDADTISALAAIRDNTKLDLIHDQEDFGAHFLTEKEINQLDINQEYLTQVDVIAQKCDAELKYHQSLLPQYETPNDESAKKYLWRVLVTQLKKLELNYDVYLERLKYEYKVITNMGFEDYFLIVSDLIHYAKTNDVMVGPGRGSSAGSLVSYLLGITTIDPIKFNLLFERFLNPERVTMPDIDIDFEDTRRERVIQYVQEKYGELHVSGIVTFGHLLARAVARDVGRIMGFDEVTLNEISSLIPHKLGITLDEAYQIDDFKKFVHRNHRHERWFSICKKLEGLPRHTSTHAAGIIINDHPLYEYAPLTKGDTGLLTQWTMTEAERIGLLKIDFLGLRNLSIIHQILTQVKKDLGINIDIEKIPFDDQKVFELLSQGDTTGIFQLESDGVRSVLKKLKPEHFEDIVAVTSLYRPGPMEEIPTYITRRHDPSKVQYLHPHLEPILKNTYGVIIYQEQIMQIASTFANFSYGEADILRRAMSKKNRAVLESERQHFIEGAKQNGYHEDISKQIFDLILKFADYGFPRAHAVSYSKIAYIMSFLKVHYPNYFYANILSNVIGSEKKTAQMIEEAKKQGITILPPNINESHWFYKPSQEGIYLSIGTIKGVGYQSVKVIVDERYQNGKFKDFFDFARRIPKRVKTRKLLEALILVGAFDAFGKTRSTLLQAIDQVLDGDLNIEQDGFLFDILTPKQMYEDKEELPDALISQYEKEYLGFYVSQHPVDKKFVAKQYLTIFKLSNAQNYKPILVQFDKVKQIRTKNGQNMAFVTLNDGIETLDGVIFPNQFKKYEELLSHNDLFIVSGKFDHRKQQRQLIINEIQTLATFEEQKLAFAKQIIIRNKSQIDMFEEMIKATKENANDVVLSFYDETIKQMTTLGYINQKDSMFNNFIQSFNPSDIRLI
In short: as §1

[3] = tested on: Staphylococcus aureus MB6266 (MRSA COL); test: Nargenicin antibacterial assay (MIC), S. aureus; assay type: cell-based; details: * = some reduction of growth versus control at […]; for MIC: Staphylococcus aureus, MRSA, read-out: S. aureus COL (MIC), MHII broth + 50% human serum
[4] = tested on: Pseudomonas aeruginosa MB5890 (CB1101, efflux-deleted); test: microbe, parasite or virus in culture; assay type: cell-based; details: * = some reduction of growth versus control at […]; for MIC: Pseudomonas aeruginosa, read-out: P. aeruginosa MB5890 efflux-del (MIC), MHII broth
[5] = tested on: Streptococcus pneumoniae MB6357 (CL 2883); test: Nargenicin antibacterial assay (MIC), S. pneumoniae; assay type: cell-based; details: * = some reduction of growth versus control at […]; for MIC: Streptococcus pneumoniae, read-out: S. pneumoniae MB2883 (MIC), Isosensitest broth
[6] = tested on: Escherichia coli MB5747 (LS 883, tolC); test: microbe, parasite or virus in culture; assay type: cell-based; details: * = some reduction of growth versus control at […]; for MIC: Escherichia coli, read-out: E. coli LS883 tolC (MIC), MHII broth
[7] = read-out: E. coli DnaE IC50 (converted)
[8] = read-out: S. aureus DnaE IC50 (converted)

T1 sequence (P10443 whole entry, the tested form may be a part): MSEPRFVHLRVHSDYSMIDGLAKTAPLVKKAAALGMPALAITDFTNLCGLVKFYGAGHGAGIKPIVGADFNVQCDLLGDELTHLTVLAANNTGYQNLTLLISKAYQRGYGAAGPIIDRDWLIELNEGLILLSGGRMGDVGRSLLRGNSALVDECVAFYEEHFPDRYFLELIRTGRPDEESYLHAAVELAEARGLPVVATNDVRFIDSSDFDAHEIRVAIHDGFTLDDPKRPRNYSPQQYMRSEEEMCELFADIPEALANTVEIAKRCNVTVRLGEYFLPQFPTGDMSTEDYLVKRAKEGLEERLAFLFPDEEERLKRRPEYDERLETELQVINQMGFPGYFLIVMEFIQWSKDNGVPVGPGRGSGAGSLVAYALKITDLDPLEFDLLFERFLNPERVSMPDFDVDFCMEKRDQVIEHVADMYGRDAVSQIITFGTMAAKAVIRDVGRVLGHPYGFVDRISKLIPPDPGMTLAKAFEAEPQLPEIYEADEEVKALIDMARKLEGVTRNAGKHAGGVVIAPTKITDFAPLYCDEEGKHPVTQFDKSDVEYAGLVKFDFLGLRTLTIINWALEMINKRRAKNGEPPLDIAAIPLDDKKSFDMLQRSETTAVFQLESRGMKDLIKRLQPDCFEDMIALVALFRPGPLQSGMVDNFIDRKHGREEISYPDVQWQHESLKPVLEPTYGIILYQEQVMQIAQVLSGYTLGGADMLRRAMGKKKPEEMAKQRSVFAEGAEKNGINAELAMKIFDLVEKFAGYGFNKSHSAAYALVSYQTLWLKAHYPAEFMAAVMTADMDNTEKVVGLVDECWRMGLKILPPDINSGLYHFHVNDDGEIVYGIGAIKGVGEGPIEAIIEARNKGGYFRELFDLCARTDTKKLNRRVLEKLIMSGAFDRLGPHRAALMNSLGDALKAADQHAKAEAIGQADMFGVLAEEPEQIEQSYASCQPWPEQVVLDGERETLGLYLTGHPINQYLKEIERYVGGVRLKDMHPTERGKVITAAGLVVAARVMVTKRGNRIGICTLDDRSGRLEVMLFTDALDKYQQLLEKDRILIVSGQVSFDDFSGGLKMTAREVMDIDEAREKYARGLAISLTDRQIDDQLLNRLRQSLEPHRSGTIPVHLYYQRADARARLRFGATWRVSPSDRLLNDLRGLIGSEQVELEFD

Row | Structure (SMILES) | IC50 [1, 7] | IC50 ([2]; S. aureus DnaE IC50) | MIC [3] | MIC [4] | MIC [5] | MIC [6] | E. coli DnaE IC50 [1] | S. aureus DnaE IC50 [2] | S. aureus COL (MIC) ([3]; MHII broth + 50% human serum) | P. aeruginosa MB5890 efflux-del (MIC) ([4]; MHII broth) | S. pneumoniae MB2883 (MIC) ([5]; Isosensitest broth) | E. coli LS883 tolC (MIC) ([6]; MHII broth) | IC50 ([1]; E. coli DnaE IC50) | IC50 [2, 8]
1 | CO[C@H]1C[C@H]2C=C[C@H]3[C@H]4O[C@]2(/C(C)=C/[C@@H](C)[C@@H]([C@@H](C)OC(=O)OC(C)C)OC1=O)[C@@H]3[C@H](O)[C@@H](C)[C@H]4OC(=O)c1ccc[nH]1 [Example 33] | 58.2 µM | 0.0349 µM | 32 µg/mL | > 128 µg/mL | 8 µg/mL (≈ 13.3 µM) | > 64 µg/mL |  |  |  |  |  |  |  | 
2 | CO[C@H]1C[C@H]2C=CC3C4[C@H](O)[C@@H](C)[C@@H](OC(=O)c5ccc[nH]5)[C@@H]3O[C@]42/C(C)=C/[C@@H](C)[C@@H]([C@@H](C)OC(=O)C(=O)NCc2ccccc2CN(C)C)OC1=O [Example 141] |  |  |  |  |  |  | 1 µg/mL | <0.006 µg/mL | 0.25 µg/mL | 4 µg/mL | >128* μg/mL | 0.25 µg/mL |  | 
3 | CO[C@H]1C[C@H]2C=CC3C4[C@H](O)[C@@H](C)[C@@H](OC(=O)c5ccc[nH]5)[C@@H]3O[C@]42/C(C)=C/[C@@H](C)[C@@H]([C@@H](C)OC(=O)C(=O)OCCN2CCN(C)CC2)OC1=O.O=C(O)C(F)(F)F [Example 210] | 4.95 µM | < 0.00725 µM | 1 µg/mL | 32 µg/mL | > 128 µg/mL | 1 µg/mL |  |  |  |  |  |  |  | 
4 | CO[C@H]1C[C@H]2C=CC3C4[C@H](O)[C@@H](C)[C@@H](OC(=O)c5ccc[nH]5)[C@@H]3O[C@]42/C(C)=C/[C@@H](C)[C@@H]([C@@H](C)OC(=O)C(=O)OCCN2CCCCC2)OC1=O.O=C(O)C(F)(F)F [Example 213] | 4.43 µM | < 0.00738 µM | 4 µg/mL | 128 µg/mL | > 128 µg/mL | 4 µg/mL |  |  |  |  |  |  |  | 
5 | CO[C@H]1C[C@H]2C=CC3C4[C@H](O)[C@@H](C)[C@@H](OC(=O)c5ccc[nH]5)[C@@H]3O[C@]42/C(C)=C/[C@@H](C)[C@@H]([C@@H](C)OC(=O)C(=O)OCCCN(C)C)OC1=O.O=C(O)C(F)(F)F [Example 206] | 1.91 µM | < 0.00763 µM | 4 µg/mL | 64 µg/mL | > 128 µg/mL | 4 µg/mL |  |  |  |  |  |  |  | 
6 | CO[C@H]1C[C@H]2C=C[C@H]3[C@H]4O[C@]2(/C(C)=C/[C@@H](C)[C@@H]([C@@H](C)OC(=O)NCC(=O)O)OC1=O)[C@@H]3[C@H](O)[C@@H](C)[C@H]4OC(=O)c1ccc[nH]1 [Example 12] | 114 µM | < 0.00973 µM | > 128 µg/mL | > 128 µg/mL | > 128 µg/mL | 32 µg/mL (≈ 51.9 µM) |  |  |  |  |  |  |  | 
7 | CO[C@H]1CC2C=C[C@H]3[C@H]4O[C@]2(/C(C)=C/[C@@H](C)[C@@H]([C@@H](C)OC(=O)NCC(N)=O)OC1=O)[C@@H]3[C@H](O)[C@@H](C)[C@H]4OC(=O)c1ccc[nH]1 (stereo partly drawn) [Example 16] |  |  | 32 µg/mL | 128 µg/mL (≈ 208 µM) | > 128 µg/mL | 4 µg/mL (≈ 6.5 µM) |  |  |  |  |  |  | 97.5 µM | < 0.00975 µM
8 | CO[C@H]1C[C@H]2C=C[C@@H]3[C@H]4[C@H](O)[C@@H](C)C(n5ccnc5)[C@@H]3O[C@]42/C(C)=C/[C@@H](C)[C@@H]([C@@H](C)O)OC1=O (stereo partly drawn) [Example 149] |  | 23.3 µM | > 128 µg/mL | 128 µg/mL (≈ 271 µM) | > 128 µg/mL | 32 µg/mL (≈ 67.7 µM) |  |  |  |  |  |  | > 212 µM | 
9 | CO[C@H]1C[C@H]2C[C@H](O)[C@H]3[C@H]4O[C@]2(/C(C)=C/[C@@H](C)[C@@H]([C@@H](C)O)OC1=O)[C@@H]3[C@H](O)[C@@H](C)[C@H]4OC(=O)c1ccc[nH]1 [Example 192] | > 187 µM | 18.7 µM | > 128 µg/mL | > 128 µg/mL | > 128 µg/mL | > 128 µg/mL |  |  |  |  |  |  |  | 
10 | CO[C@H]1C[C@H]2C=C[C@H]3[C@H]4O[C@]2(/C(C)=C/[C@@H](C)[C@@H]([C@@H](C)O)OC1=O)[C@@H]3[C@H](O)[C@@H](C)[C@H]4OC(=O)c1[nH]c(Br)c(Br)c1Br [Example 41, (3R,4S,7S,8aS,10aR,11R,12R,13R,14R,14aS,14bS,E)-14-hydroxy-4-((R)-1-hydroxyethyl)-7-methoxy-1,3,13-trimethyl-6-oxo-3,4,6,7,8,8a,10a,11,12,13,14,14a-dodecahydro-11,14b-epoxynaphtho[2,1-e]oxecin-12-yl3,4,5-tribromo-1H-pyrrole-2-carboxylate] |  | 4.12 µM | > 128 µg/mL | > 128 µg/mL | 8 µg/mL (≈ 10.6 µM) | > 128 µg/mL |  |  |  |  |  |  | 79.8 µM | 
11 | CNS(=O)(=O)CCNC(=O)O[C@H](C)[C@H]1OC(=O)[C@@H](OC)C[C@H]2C=C[C@H]3[C@H]4O[C@]2(/C(C)=C/[C@H]1C)[C@@H]3[C@H](O)[C@@H](C)[C@H]4OC(=O)c1ccc[nH]1 [Example 13] | > 147 µM | < 0.00883 µM | 32 µg/mL | > 128 µg/mL | > 128 µg/mL | 8 µg/mL (≈ 11.8 µM) |  |  |  |  |  |  |  | 
12 | CO[C@H]1C[C@H]2C=C[C@H]3[C@H]4O[C@]2(/C(C)=C/[C@@H](C)[C@@H]([C@@H](C)O)OC1=O)[C@@H]3[C@H](O)[C@@H](C)[C@H]4OC(=O)c1cccn1C(C)=O [Example 203] | 11.7 µM | < 0.0108 µM | < 0.125 µg/mL | 16 µg/mL (≈ 28.7 µM) | 128 µg/mL (≈ 230 µM) | < 0.125 µg/mL |  |  |  |  |  |  |  | 
13 | CO[C@H]1CC2C=C[C@H]3[C@H]4O[C@]2(/C(C)=C/[C@@H](C)[C@@H]([C@@H](C)O)OC1=O)[C@@H]3[C@H](OC(=O)NC1CC1)[C@@H](C)[C@H]4OC(=O)c1ccc[nH]1 (stereo partly drawn) [Example 39] |  |  | > 128 µg/mL | > 128 µg/mL | > 128 µg/mL | > 128 µg/mL |  |  |  |  |  |  | > 167 µM | 15 µM
14 | CO[C@H]1C[C@H]2C=C[C@H]3[C@H]4O[C@]2(/C(C)=C/[C@@H](C)[C@H](C)OC1=O)[C@@H]3[C@H](O)[C@@H](C)[C@H]4OC(=O)c1ccc[nH]1 [Example 48, (3R,4S,7S,8aS,10aR,11R,12R,13R,14R,14aS,14bS,E)-14-hydroxy-7-methoxy-1,3,4,13-tetramethyl-6-oxo-3,4,6,7,8,8a,10a,11,12,13,14,14a-dodecahydro-11,14b-epoxynaphtho[2,1-e]oxecin-12-yl 1H-pyrrole-2-carboxylate] |  | 0.165 µM | > 128 µg/mL | > 128 µg/mL | 128 µg/mL (≈ 264 µM) | 64 µg/mL (≈ 132 µM) |  |  |  |  |  |  | > 206 µM | 
15 | COC1CC2C=CC3C4OC2(C(C)=CC(C)C(C(C)OC(=O)NCCCN2CCN(C)CC2)OC1=O)C3C(O)C(C)C4OC(=O)c1ccc[nH]1 (stereo not drawn) [Example 25] |  |  | 32 µg/mL | > 128 µg/mL | > 128 µg/mL | 32 µg/mL (≈ 45.8 µM) |  |  |  |  |  |  | > 143 µM | 0.03 µM

— patent US9944654B2, “Nargenicin compounds and uses thereof as antibacterial agents” (priority 2014, dated 2018)
